Data: patent US11993640B2, “Treating inflammatory lung disease” (United States Government as represented by the Department …, priority 2019, dated 2024)
Non-standard residues stand in square brackets, D forms with d. Residues, ends and D or L forms follow the SMILES beside them. *: point of attachment. Phenylacetyl(2,3,4,5,6-F5) = O=C(Cc1c(F)c(F)c(F)c(F)c1F)*; Phe(4-Cl) = N[C@@H](Cc1ccc(Cl)cc1)C(=O)O; hArg = N=C(N)NCCCC[C@H](N)C(=O)O; 12Ado = NCCCCCCCCCCCC(=O)O; Nle = CCCC[C@H](N)C(=O)O; Orn = NCCC[C@H](N)C(=O)O; Abu = CC[C@H](N)C(=O)O; PhAc = O=C(Cc1ccccc1)*; Aoc = NCCCCCCCC(=O)O

Columns and labels:
Format in all cases: cell-based, human
Conditions in all cases: 5 μM, 72 h; relative to MIA602 = 1; Table 3A
KATOIII cells = assay: In vitro cell viability, stomach cancer KATOIII
Experimental: (§1) The inhibitory effects of the various synthesized GHRH antagonists were tested in cell proliferation assays in various human cancer cell lines including stomach cancer (KATOIII, N87), colon cancer (HT-29), urothelial cancer (J82, RT4), pancreatic cancer (PANC-1, CFPAC-1), prostatic cancer (PC3), breast cancer (MX-1, HCC1806), ovarian cancer (SK-OV-3, OVCAR-3) and lung cancer (HCC827, H460).
(§2) Cell culture. Human cancer cell lines including pancreatic (PANC-1 and CFPAC-1), lung (HCC827 and H460), stomach (NCI-N87 and KATOIII), urothelial (J82, RT4), prostatic (PC3), breast (MX-1 and HCC 1806), colorectal (HT-29), and ovarian (SK-OV-3 and OVCAR-3) were obtained from the American Type Culture Collection (ATCC) and cultured at 37° C. in a humidified 95% air/5% CO2 atmosphere in the medium recommended by ATCC.
(§3) In vitro cell viability. Cell viability was analyzed as follows: cancer cells including pancreatic (PANC-1 and CFPAC-1), lung (HCC827 and H460), stomach (NCI-N87 and KATOIII), urothelial (J82, RT4), prostatic (PC3) and breast (MX-1 and HCC 1806), colorectal (HT-29) and ovarian (SK-OV-3 and OVCAR-3) were grown on 96 well plates to ˜60% confluence, the cells were starved for 24 h in culture medium containing 0.5% FBS. Cells were then treated with GHRH antagonists MIA602 AVR compounds at concentrations of 1, 2.5 or 5 μM, or vehicle (0.1% DMSO) in quintuplicates for 72 hours. The medium was replaced every 48 hours. Cell viability was measured using CellTiter 96 aqueous one solution kit (Promega). Inhibitory effects of tested AVR compounds in comparison to that of MIA602 are presented as inhibitory potency.
(§4) Inhibitory effects of selected AVR compounds in comparison to that of MIA602 are presented as inhibitory potency (e.g., percentage of inhibition). […] The cell lines tested including lung cancer HCC827 (FIG. 2A), pancreatic cancer CFPAC-1 (FIG. 2B), stomach cancer N87 (FIG. 2C), colon cancer HT-29 (FIG. 2D), breast cancers MX-1 and HCC1806 (FIGS. 2E, F). Based on the results of cell proliferation assay after cancer cells were treated with antagonist at concentration of 5 μM for 72H, the relative inhibitory potency of AVR antagonists in comparison to MIA-602 is summarized in Table 3 A and B. Over 60 AVR compounds were tested in 12 cancer cell lines.

CFPAC-1 cells = assay: In vitro cell viability, pancreatic cancer CFPAC-1
Experimental: as §1, §2, §3, §4
(§5) Based on the results of cell proliferation assay after cancer cells were treated with antagonist at concentration of 5 µM for 72H, * at concentration of 2 µM for 72 H.

HCC827 cells = assay: In vitro cell viability, lung cancer HCC827
Experimental: as §1, §2, §3, §4, §5

| SMILES | Relative inhibitory potency, Stomach KATOIII (KATOIII cells) | Relative inhibitory potency, Pancreatic CFPAC-1 (CFPAC-1 cells) | Relative inhibitory potency, Lung HCC827 (HCC827 cells) |
| --- | --- | --- | --- |
| CCCC[C@H](NC(=O)[C@@H](NC(=O)[C@H](CC(=O)O)NC(=O)[C@H](CCC(N)=O)NC(=O)[C@H](CC(C)C)NC(=O)[C@H](CC(C)C)NC(=O)[C@H](CCCCN)NC(=O)[C@H](CCCNC(=N)N)NC(=O)[C@H](C)NC(=O)[C@H](CO)NC(=O)[C@H](CC(C)C)NC(=O)[C@H](CCC(N)=O)NC(=O)[C@H](CC)NC(=O)[C@H](CC(C)C)NC(=O)[C@@H](NC(=O)[C@H](CCCCN)NC(=O)[C@H](CCCNC(=N)N)NC(=O)[C@H](Cc1ccc(OC)cc1)NC(=O)[C@H](CCCCNC(=N)N)NC(=O)[C@H](CC(N)=O)NC(=O)[C@@H](NC(=O)[C@H](Cc1ccc(Cl)cc1)NC(=O)[C@@H](NC(=O)[C@H](C)NC(=O)[C@H](CC(=O)O)NC(=O)[C@@H](CCCNC(=N)N)NC(=O)[C@H](Cc1ccc(O)cc1)NC(=O)CCCCCCCCCCCNC(=O)Cc1ccccc1)[C@@H](C)CC)[C@@H](C)O)C(C)C)[C@@H](C)CC)C(=O)N[C@H](CCCNC(=N)N)C(=O)N[C@@H](CCCCNC(=N)N)C(=O)NCCCCCCCC(=O)NC [AVR-321, PhAC-Ada-Tyr-DArg-Asp-Ala-Ile-Cpa-Thr-Asn-Har-Tyr(Me)-Arg-Lys-Val-Leu-Abu-Gln-Leu-Ser-Ala-Arg-Lys-Leu-Leu-Gln-Asp-Ile-Nle-DArg-Har-Aoc-NHCH3] ({PhAc-12Ado}-Y[dR]DAI[Phe(4-Cl)]TN[hArg]Y(Me)RKVL[Abu]QLSARKLLQDI[Nle][dR][hArg][Aoc]-NHMe) | 1.414 |  |  |
| CCCC[C@H](NC(=O)[C@@H](NC(=O)[C@H](CC(=O)O)NC(=O)[C@H](CCC(N)=O)NC(=O)[C@H](CC(C)C)NC(=O)[C@H](CC(C)C)NC(=O)[C@H](CCCN)NC(=O)[C@H](Cc1c[nH]cn1)NC(=O)[C@H](C)NC(=O)[C@H](CO)NC(=O)[C@H](CC(C)C)NC(=O)[C@H](CCC(N)=O)NC(=O)[C@H](CC)NC(=O)[C@H](CC(C)C)NC(=O)[C@@H](NC(=O)[C@H](CCCCN)NC(=O)[C@H](CCCNC(=N)N)NC(=O)[C@H](Cc1ccc(OC)cc1)NC(=O)[C@H](CCCNC(=N)N)NC(=O)[C@H](CC(N)=O)NC(=O)[C@@H](NC(=O)[C@H](Cc1ccc(Cl)cc1)NC(=O)[C@@H](NC(=O)[C@H](C)NC(=O)[C@H](CC(=O)O)NC(=O)[C@@H](CCCNC(=N)N)NC(=O)[C@H](Cc1ccc(O)cc1)NC(=O)CCCCCCCCCCCNC(=O)Cc1c(F)c(F)c(F)c(F)c1F)[C@@H](C)CC)[C@@H](C)O)C(C)C)[C@@H](C)CC)C(=O)N[C@H](CCCNC(=N)N)C(=O)N[C@@H](CCCCNC(=N)N)C(=O)NCCCCCCCCCCCC(N)=O [AVR-620, 5FPhAC-Ada-Tyr-DArg-Asp-Ala-Ile-Cpa-Thr-Asn-Arg-Tyr(Me)-Arg-Lys-Val-Leu-Abu-Gln-Leu-Ser-Ala-His-Orn-Leu-Leu-Gln-Asp-Ile-Nle-DArg-Har-Ada-NH2] ({Phenylacetyl(2,3,4,5,6-F5)-12Ado}-Y[dR]DAI[Phe(4-Cl)]TNRY(Me)RKVL[Abu]QLSAH[Orn]LLQDI[Nle][dR][hArg][12Ado]-NH2) | 1.769 | 1.567 | 3.753 |
| CCCC[C@H](NC(=O)[C@@H](NC(=O)[C@H](CC(=O)O)NC(=O)[C@H](CCC(N)=O)NC(=O)[C@H](CC(C)C)NC(=O)[C@H](CC(C)C)NC(=O)[C@H](CCCCN)NC(=O)[C@H](CCCNC(=N)N)NC(=O)[C@H](C)NC(=O)[C@H](CO)NC(=O)[C@H](CC(C)C)NC(=O)[C@H](CCC(N)=O)NC(=O)[C@H](CC)NC(=O)[C@H](CC(C)C)NC(=O)[C@@H](NC(=O)[C@H](CCCCN)NC(=O)[C@H](CCCNC(=N)N)NC(=O)[C@H](Cc1ccc(OC)cc1)NC(=O)[C@H](CCCCNC(=N)N)NC(=O)[C@H](CC(N)=O)NC(=O)[C@@H](NC(=O)[C@H](Cc1ccc(Cl)cc1)NC(=O)[C@@H](NC(=O)[C@H](C)NC(=O)[C@H](CC(=O)O)NC(=O)[C@@H](CCCNC(=N)N)NC(=O)[C@H](Cc1ccc(O)cc1)NC(=O)CCCCCCCCCCCNC(=O)Cc1c(F)c(F)c(F)c(F)c1F)[C@@H](C)CC)[C@@H](C)O)C(C)C)[C@@H](C)CC)C(=O)N[C@H](CCCNC(=N)N)C(=O)N[C@@H](CCCCNC(=N)N)C(=O)NCCCCCCCC(=O)NC [AVR-322, 5FPhAC-Ada-Tyr-DArg-Asp-Ala-Ile-Cpa-Thr-Asn-Har-Tyr(Me)-Arg-Lys-Val-Leu-Abu-Gln-Leu-Ser-Ala-Arg-Lys-Leu-Leu-Gln-Asp-Ile-Nle-DArg-Har-Aoc-NHCH3] ({Phenylacetyl(2,3,4,5,6-F5)-12Ado}-Y[dR]DAI[Phe(4-Cl)]TN[hArg]Y(Me)RKVL[Abu]QLSARKLLQDI[Nle][dR][hArg][Aoc]-NHMe) | 1.296 |  |  |
| CCCC[C@H](NC(=O)[C@@H](NC(=O)[C@H](CC(=O)O)NC(=O)[C@H](CCC(N)=O)NC(=O)[C@H](CC(C)C)NC(=O)[C@H](CC(C)C)NC(=O)[C@H](CCCCN)NC(=O)[C@H](CCCNC(=N)N)NC(=O)[C@H](C)NC(=O)[C@H](CO)NC(=O)[C@H](CC(C)C)NC(=O)[C@H](CCC(N)=O)NC(=O)[C@H](CC)NC(=O)[C@H](CC(C)C)NC(=O)[C@@H](NC(=O)[C@H](CCCCN)NC(=O)[C@H](CCCNC(=N)N)NC(=O)[C@H](Cc1ccc(OC)cc1)NC(=O)[C@H](CCCCNC(=N)N)NC(=O)[C@H](CC(N)=O)NC(=O)[C@@H](NC(=O)[C@H](Cc1ccc(Cl)cc1)NC(=O)[C@@H](NC(=O)[C@H](C)NC(=O)[C@H](CC(=O)O)NC(=O)[C@@H](CCCNC(=N)N)NC(=O)[C@H](Cc1ccc(O)cc1)NC(=O)CCCCCCCCCCCNC(=O)Cc1ccccc1)[C@@H](C)CC)[C@@H](C)O)C(C)C)[C@@H](C)CC)C(=O)N[C@H](CCCNC(=N)N)C(=O)N[C@@H](CCCCNC(=N)N)C(=O)NCCCCCCCCCCCC(N)=O [AVR-332] ({PhAc-12Ado}-Y[dR]DAI[Phe(4-Cl)]TN[hArg]Y(Me)RKVL[Abu]QLSARKLLQDI[Nle][dR][hArg][12Ado]-NH2) | 1.643 |  |  |
| CCCC[C@H](NC(=O)[C@@H](NC(=O)[C@H](CC(=O)O)NC(=O)[C@H](CCC(N)=O)NC(=O)[C@H](CC(C)C)NC(=O)[C@H](CC(C)C)NC(=O)[C@H](CCCCN)NC(=O)[C@H](CCCNC(=N)N)NC(=O)[C@H](C)NC(=O)[C@H](CO)NC(=O)[C@H](CC(C)C)NC(=O)[C@H](CCC(N)=O)NC(=O)[C@H](CC)NC(=O)[C@H](CC(C)C)NC(=O)[C@@H](NC(=O)[C@H](CCCCN)NC(=O)[C@H](CCCNC(=N)N)NC(=O)[C@H](Cc1ccc(OC)cc1)NC(=O)[C@H](CCCNC(=N)N)NC(=O)[C@H](CC(N)=O)NC(=O)[C@@H](NC(=O)[C@H](Cc1ccc(Cl)cc1)NC(=O)[C@@H](NC(=O)[C@H](C)NC(=O)[C@H](CC(=O)O)NC(=O)[C@@H](CCCNC(=N)N)NC(=O)[C@H](Cc1ccc(O)cc1)NC(=O)CCCCCCCCCCCNC(=O)Cc1ccccc1)[C@@H](C)CC)[C@@H](C)O)C(C)C)[C@@H](C)CC)C(=O)N[C@H](CCCNC(=N)N)C(=O)N[C@@H](CCCCNC(=N)N)C(=O)NC [AVR-234, PhAC-Ada-Tyr-DArg-Asp-Ala-Ile-Cpa-Thr-Asn-Arg-Tyr(Me)-Arg-Lys-Val-Leu-Abu-Gln-Leu-Ser-Ala-Arg-Lys-Leu-Leu-Gln-Asp-Ile-Nle-DArg-Har-NHCH3] ({PhAc-12Ado}-Y[dR]DAI[Phe(4-Cl)]TNRY(Me)RKVL[Abu]QLSARKLLQDI[Nle][dR][hArg]-NHMe) | 1.709 | 2.205 | 4.510 |
